From patent US20080081781A1, “Methods and compositions for the treatment of metabolic syndrome” (priority 2004, published 2008)

Key:
[1] = test system: high fat high cholesterol (HFHC) diet rats; assay: Combination treatment with berberine and simvastatin in HFHC diet rats (Table 8); format: in vivo, rat; conditions: oral, after 25 days, daily dose berberine 100 mg/kg, simvastatin 25 mg/kg, combination 100 + 25, average ± standard error
Description: Rats were fed a high fat high cholesterol (HFHC) diet for 10 days, and then divided into groups of seven. The rats were then administered berberine or simvastatin, or a combination of berberine and simvastatin orally for 25 days. After 25 days, serum cholesterol, triglyceride and LDL-c levels were measured. […] The combination of simvastatin, and berberine lowered the cholesterol, triglyceride and LDL-c levels further than either alone.

LDLR promoter = LDLR promoter activity, pLDLR234Luc reporter in HepG2 cells; format: cell-based, human; conditions: pLDLR234Luc HepG2, LPDS or LPDS and cholesterol medium, 8 hour treatment
Source text: HepG2 cells were transfected with the reporter construct pLDLR234Luc, which contains the SRE- I motif and the sterol-independent regulatory element that mediates the cytokine oncostatin M-induced transcription of the LDLR gene.

InsR mRNA = assay: Rat liver InsR and LDLR mRNA (quantitative real time RT-PCR); format: in vivo; conditions: rats, 14 days
Description: (§1) The livers were dissected and stored in liquid nitrogen for RNA extraction, real-time RT-PCR and PKC activity assay. Total blood samples were also collected to assay fasting blood glucose and serum insulin levels. The insulin levels were analyzed using radio-immunoassay (Linco Research, St Charles, Mo.). The insulin sensitivity indexes (ISI) were calculated according to the formula: 10^4/(fasting serum insulin X fasting blood glucose) (Hanson, Am. J. Epidemiol. 15 1(2), 190-198 (2000)). The insulin level and ISI of normal rats were also determined for comparison. […] It also elevated the fasting blood glucose from 7 to 12.8 mmol/L (P<0.001).
Liver mRNA extracts were used for quantitative real time RT-PCR assay. Total cellular RNA was reverse-transcribed into cDNA using the Reverse Transcription System (Promega, Madison, Wis.). Quantitative real-time PCR were performed with these cDNA using the Applied Biosystems 7500 Real-Time PCR System and TaqMan® Universal PCR Master Mix (Applied Biosystems, Foster City, Calif.). […] 2.5 μl of cDNA sample, 12.5 μl of Universal PCR Master Mix, and 1.25 μl of TaqMan® Gene Expression Assay reagent were mixed in a 25 μl reaction system, and the comparative CT method was used in relative gene quantification using the TaqMan® SDS analysis software. […]

PKC = PKC activity in rat liver (PepTag assay); format: in vivo; conditions: berberine treated rats
Description: as §1
PKC activity was analyzed using the PepTag® Assay for Non-Radioactive Detection of Protein Kinase-C or cAMP-Dependent Protein Kinase kit (Promega) according to the protocol. Briefly, after homogenization and partial purification, […] was mixed with 5 μl of PepTag® Cl peptide (specific substrate of PKC), 5 μl of reaction buffer and 5 μl of PKC activator solution in a 25 μl reaction system. […] They were transferred to a 96-well plate and quantified using densitometry according to the supplier's protocol. The catalytic activity of total PKC of a specific sample was expressed as pmol/min/mg, representing the number of picomoles of phosphate transferred to the substrate per minute per milligram of proteins of the sample.

InsR gene promoter = assay: InsR promoter activity, pGL3-1.5kIRP transfected HepG2 cells; format: cell-based, human; conditions: pGL3-1.5kIRP transfected HepG2, 10 μg/ml, 8 h
Description: The InsR promoter luciferase gene fusion plasmid (pGL3-1.5kIRP) was kindly provided by Dr. Araki E of the Graduate School of Medical Sciences, Kumamoto University, Honjo, Kumamoto, Japan.
After overnight incubation, the cells were treated with DMSO as the solvent control or with 0, 1, 2.5, 5, 7.5 and 10 μg/ml berberine for 8 h. Cell lysates were prepared and luciferase activities were measured using the Luciferase Reporter Gene Assay (Roche Applied Science). The experiment was repeated 4 times.

InsR = InsR expression on peripheral blood lymphocytes of patients (flow cytometry); format: in vivo, human; conditions: patients after two months of berberine
Source text: Peripheral blood lymphocytes (PBL) were collected for InsR expression analysis. InsR protein expressed on the surface of peripheral blood lymphocytes were stained with monoclonal antibody against human insulin receptor (Pharmagen, San Diego, Calif.) and analyzed in a flow cytometer (BD and Company, San Jose, Calif.)

COc1ccc2cc3[n+](cc2c1OC)CCc1cc2c(cc1-3)OCO2 [berberine]
LDL-c [1]: 1.2 ± 0.2 mmol/L | Total Cholesterol [1]: 3.8 ± 0.5 mmol/L | Triglyceride [1]: 2.1 ± 0.3 mmol/L | LDLR promoter activity (LDLR promoter): no effect | increase in InsR mRNA in the livers (InsR mRNA; 75 mg/kg/day): 1.8 fold | increase in InsR mRNA in the livers (InsR mRNA; 150 mg/kg/day): 2.3 fold | activity of PKC in the livers (PKC): increased activity of PKC | elevation of Luc mRNA level (InsR gene promoter): 2.5 fold | % of PBL expressing InsR on the surface (InsR): significantly increased
